Earlier results as cited in US20110177168A1, “COMPOSITION” (SmithKline Beecham Limited, priority 2000, published 2011).

[1] = oral doses of conventional immediate release tablets

- bioavailability [1]: 80%
- tmax [1]: 0.5 to 1.5 h
- elimination half-life (reported): 1.9 to 2.5 h
SMILES: CC(=O)Nc1ccc(O)cc1 [paracetamol, N-acetyl-p-aminophenol]
